Patent publication US7875638B2, “Synthesis of epothilones, intermediates thereto, analogues and uses thereof” (Sloan-Kettering Institute for Cancer Research, priority 2002, dated 2011)
Where two headings read alike, the source gives them in different places.

Columns and labels:
[1] = tested on: CAG; test: XTT cell growth inhibition, CAG; type: cell-based; conditions: Homo sapiens; Myeloma; XTT tetrazonium assay; read-out: IC50 (nM), CAG
[2] = tested on: RPMI8226 myeloma cell lines; test: Cell cycle analysis (propidium iodide DNA staining), RPMI8226; type: cell-based, human; conditions: 31.25 nM
Description: RPMI8226 myeloma cell lines were used.

[3] = tested on: Human CD34+ stem cells; test: Apoptosis and 2 weeks progenitor assays on CD34+ stem cells; type: cell-based; conditions: 24 hours incubation, umbilical cord blood CD34+
Description: Then drugs were washed out and annexin V staining was performed. Solid area represents vehicle control and open area represents drug treated group. There is no obvious increased apoptosis of non-cycling human CD34+ cells with short period of exposure to epothilones.
Drug cytotoxicity to hematopoietic stem cells is always a major concern. Human CD34+ stem cells were isolated from umbilical cord blood and incubated with either dEpoB or Fludelone alone for 24 hours. After washing out the drugs, apoptosis assays and 2 weeks progenitor assays were performed to evaluate the influence of epothilone to stem cells.

[4] = tested on: Ovcar-4; test: XTT cell growth inhibition, Ovcar-4; type: cell-based; conditions: Homo sapiens, OVCAR-4; Ovarian Ca; XTT tetrazonium assay; read-out: IC50 (nM), Ovcar-4
[5] = tested on: OPM-2 myeloma cells; test: Cell cycle analysis (propidium iodide DNA staining), OPM-2; type: cell-based, human
Description: FIG. 95 is cell cycle analysis as determined by Propidium iodide DNA staining. […] The two drugs induced the same patter of cell cycle arrest.

[6] = tested on: CCRF-CEM
[7] = tested on: RPMI-8226 (human multiple myeloma cell line); test: Global gene expression (Affymetrix chip AU133 2.0); type: cell-based
[8] = 6 hr gene difference, Fludelone vs dEpoB treated cells

In the case of C/C(=C\c1csc(C)n1)[C@@H]1C/C=C(/C(F)(F)F)C/C=C/[C@H](C)[C@H](O)[C@@H](C)C(=O)C(C)(C)[C@@H](O)CC(=O)O1 [Compound 29, 26-trifluoro-trans-9,10-dehydro-12,13-desoxyepothilone B], the IC50 [1] is reported as 12 ± 1.8 nM, the Cell cycle arrest [2] is reported as “absolutely blocked cell cycle at G2M phase” and the “Toxicity on non-cycling stem cells” value [3] is reported as “no significant toxicity”. For the same compound, the IC50 [4] was 1.8 ± 0.7 nM, the Cell cycle arrest [5] was “arrested in G2M phase starting from 6 hours and absolutely blocked at 24 hours” and the “Attenuation of cytotoxicity by the three fluorine atoms at C26, factor” value [6] was at most 4. The IC50 ([6]; human) was 0.0032 ± 0.0003 µM, the “Cytotoxicity relative to the benchmark compound dEpoB” value ([6]; in the cell) was about 1.8 fold and the IC50 ([6]; read-out: IC50 (μM), CCRF-CEM, XTT assay following 72 h inhibition, Table 1-2) was 0.0035 µM. The IC50 ([6]; read-out: IC50, CCRF-CEM(C), XTT assay following 72 h inhibition, Table 1-3) was 0.0035 µM, the “Fold change in expression, APP” value ([7]; 6 h) was “+2.14 fold” and the “Fold change in expression, BASP1” value ([7]; 6 h) was “+2.83 fold”. The “Fold change in expression, HIST1” value ([7]; 6 h) was −2.00 fold, the “Fold change in expression, HNRPD” value ([7]; 6 h) was −2.46 fold and the “Fold change in expression, JUN” value ([7]; 6 h) was “+3.25 fold”. For the same compound, the “Fold change in expression, SKIL” value ([7]; 6 h) was “+2.83 fold”, the “Fold change in expression, SUV39 H2” value ([7]; 6 h) was −2.00 fold and the “Fold change, AIM2” value ([7]; 6 h) was −2.64 fold. For the same compound, the “Fold change, BCL3” value ([7]; 6 h) was “+3.25 fold”, the “Fold change, CA4” value ([7]; 6 h) was −2.14 fold and the “Fold change, HLA-II DPα” value ([7]; 6 h) was −3.73 fold. The “Fold change, Heme oxygenase” value ([7]; 6 h) was “+2.30 fold”, the “Fold change, PTPL” value ([7]; 6 h) was −2.46 fold and the “Fold change, T RIM34” value ([7]; 6 h) was −5.66 fold. For the same compound, the “Fold change, TRIM22” value ([7]; 6 h) was −2.46 fold, the “Fold change, GIP3” value [7, 8] was −6.06 fold and the “Fold change, IFI 27” value [7, 8] was −7.46 fold. The “Fold change, IFTM1” value [7, 8] was −4.00 fold, the “Fold change, MX1” value [7, 8] was −2.00 fold and the “Fold change in expression, AIP1” value ([7]; 18 h) was “+2.14 fold”. For the same compound, the “Fold change in expression, AKAP9” value ([7]; 18 h) was “+2.00 fold”, the “Fold change in expression, APBB2” value ([7]; 18 h) was “+2.00 fold” and the “Fold change in expression, APG16L” value ([7]; 18 h) was “+2.00 fold”. The “Fold change in expression, APRIN” value ([7]; 18 h) was “+2.00 fold”, the “Fold change in expression, BAX” value ([7]; 18 h) was “+2.00 fold” and the “Fold change in expression, CCL3” value ([7]; 18 h) was “+3.48 fold”. For the same compound, the “Fold change in expression, CCT8” value ([7]; 18 h) was “+2.30 fold”, the “Fold change in expression, CD72” value ([7]; 18 h) was “+2.30 fold” and the “Fold change in expression, CEB1” value ([7]; 18 h) was −2.30 fold. For the same compound, the “Fold change in expression, CLorf29” value ([7]; 18 h) was −6.06 fold, the “Fold change in expression, Cyclin E2” value ([7]; 18 h) was −2.64 fold and the “Fold change in expression, DNAJB1” value ([7]; 18 h) was “+2.30 fold”. For the same compound, the “Fold change in expression, DUSP6” value ([7]; 18 h) was −2.14 fold, the “Fold change in expression, EIFA1” value ([7]; 18 h) was “+2.30 fold” and the “Fold change in expression, ETS2” value ([7]; 18 h) was “+2.46 fold”. For the same compound, the “Fold change in expression, F11” value ([7]; 18 h) was −4.00 fold, the “Fold change in expression, FBXO5” value ([7]; 18 h) was −2.30 fold and the “Fold change in expression, FLJ20045” value ([7]; 18 h) was −2.46 fold. The “Fold change in expression, FLJ20130” value ([7]; 18 h) was −5.66 fold, the “Fold change in expression, FLJ20241” value ([7]; 18 h) was “+3.73 fold” and the “Fold change in expression, Fibrillin 2” value ([7]; 18 h) was “+12.3 fold”. For the same compound, the “Fold change in expression, GA17” value ([7]; 18 h) was “+2.64 fold”, the “Fold change in expression, GTF2H2” value ([7]; 18 h) was “+3.03 fold” and the “Fold change in expression, HDAC9” value ([7]; 18 h) was −2.00 fold. The “Fold change in expression, HNRPD” value ([7]; 18 h) was −3.25 fold, the “Fold change in expression, HSPA1A” value ([7]; 18 h) was “+2.14 fold” and the “Fold change in expression, HSPA1B” value ([7]; 18 h) was “+2.00 fold”. The “Fold change in expression, JUN” value ([7]; 18 h) was “+2.64 fold”.
